Values quoted from earlier work, collected in patent US20240027453A1, “METHOD FOR DETECTION AND QUANTITATIVE MONITORING OF INFECTIONS WITH HERPESVIRUSES” (The Trustees of Princeton University, priority 2020, published 2024).

What was measured:
HCMV [1] = conditions: cited from earlier work
HCMV [2] = conditions: in MRC5 cells; cited from earlier work

| Compound | decrease in HCMV titers (HCMV [1]; […] CAY10602, 50 μM trans-Resveratrol) | HCMV titers (HCMV [1]) | IC50 (HCMV [2]) |
| --- | --- | --- | --- |
| Nc1c(S(=O)(=O)c2ccccc2)c2nc3ccccc3nc2n1-c1ccc(F)cc1 [CAY10602] | ~50% | decreased |  |
| Nc1ccn(C[C@@H](CO)OCP(=O)(O)O)c(=O)n1 [CDV, cidofovir] |  |  | ~500 nM |
